Results: US6461845B1, “Recombinant hepatitis C virus RNA replicase” (Emory University, priority 1995, dated 2002)

Legend:
poly(A) template = assay: poly(U) synthesis assay using a poly(A) template; assay type: biochemical; details: described reaction conditions
Experimental: (§1) Assay conditions for r-HCV-RDRP activity: The preferred conditions for assaying RDRP activity are described. The alternative conditions are operative, and designated as alternatives, in parentheses. Incubations were carried out 20 or 50 μl in final volumes that contain: 20-50 mM HEPES-pH 8.0 (alternative is 20 mM Tris-HCl;pH 7.5); 1.5-5 mM MnCl2; 100 mM ammonium acetate; 1-4 mM dithiothreitol (DDT), 500 μM each ATP, CTP, and GTP (alternative: 500 μM GTP and 250 μM each ATP and CTP); 10 μM UTP; 1-20 μCi of [α-^33P]UTP (alternative is to use [α-^32P]UTP or [^3H]UTP), 10-20 U of RNasin; and rHCV-RDRP protein. […]
(§2) Labeled nucleotides incorporated into RNA are precipitated by TCA. The precipitates are collected, washed and counted, e.g. in a scintillation counter to measure the quantity of RNA synthesized in the enzyme reaction. […] [^3H]poly(U) was quantitated by liquid scintillation spectrometry (LKB 1218 RackBeta). The synthesized RNA can also be analyzed by gel electrophoresis to determine the size of the synthesized RNA chains. For gel analysis the reaction mixture is inactivated with 100 μl of proteinase K buffer; digested with proteinase K, processed and the RNA products are analyzed by formaldehyde/agarose gel electrophoresis or 6% denaturing polyacrylamide-7 M urea gel electrophoresis.

globin mRNA template = assay: RNA synthesis assay using a globin mRNA template; assay type: biochemical; details: described reaction conditions
Experimental: as §1, §2

[1] = RNA synthesis by r-HCV-RDRP in vitro, Mg++ dependence; assay type: biochemical
Experimental: Both reactions were >90% primer-dependent under the described reaction conditions.
Assay conditions for r-HCV-RDRP activity: The preferred conditions for assaying RDRP activity are described. The alternative conditions are operative, and designated as alternatives, in parentheses. Incubations were carried out 20 or 50 μl in final volumes that contain: 20-50 mM HEPES-pH 8.0 (alternative is 20 mM Tris-HCl;pH 7.5); 1.5-5 mM MnCl2; 100 mM ammonium acetate; 1-4 mM dithiothreitol (DDT), 500 μM each ATP, CTP, and GTP (alternative: 500 μM GTP and 250 μM each ATP and CTP); 10 μM UTP; 1-20 μCi of [α-^33P]UTP (alternative is to use [α-^32P]UTP or [^3H]UTP), 10-20 U of RNasin; and rHCV-RDRP protein. Templates: 500-1000 ng of a preferred heteropolymeric template (e.g., either a 98 nt 3′-end of HCV genomic RNA or HCV RNA that included both the 5′ and 3′ ends of genomic or negative stranded HCV RNA) per 50 μl incubation; (as an alternative template, poly(A)/oligo(U) on either 20 μg/ml poly(A)460-600, and 10 μg/ml oligo (U)5-25 (or 0.8 μg of 10:1 mix of poly(A)/oligo(U) per 50 μl incubation can be employed). If the enzyme preparation is not >90-95 % pure include 50 μg/ml of actinomycin D. Incubations are for 15-120 min at 30° C. (or 22° C.). Note: stop incubations by adding 100 mM EDTA and then process for trichloroacetic acid (TCA) precipitation.

[2] = isoelectric point of the enzyme; assay type: physicochemical

## r-HCV-RDRP: Modified recombinant HCV RNA-dependent RNA polymerase (NS5B, type 1a) with N-terminal Met-Ala dipeptide, expressed in E. coli
poly(A) template
  primer dependence of poly(U) synthesis: > 90%
Globin mRNA template
  primer dependence of RNA synthesis: > 90%
[1]
  Mg++ concentration giving maximal activity: about 20 mM
[1]; no Mg++
  activity in the absence of Mg++: no detectable activity
[2]
  isoelectric point: approximately 8.8
